The NIST ThermoML archive (doi:10.1021/je400630f)

Test: xn = mol fraction of the nth substance listed
Conditions: 100 kPa, Liquid; for viscosity: Capillary tube (Ostwald / Ubbelohde) method

CCCCO [butan-1-ol] + CCO
Conditions	mass density, 283.15 K [kg/m3]	mass density, 293.15 K [kg/m3]	mass density, 298.15 K [kg/m3]	mass density, 303.15 K [kg/m3]	mass density, 313.15 K [kg/m3]	viscosity, 283.15 K [mPa·s]	viscosity, 293.15 K [mPa·s]	viscosity, 298.15 K [mPa·s]	viscosity, 303.15 K [mPa·s]	viscosity, 313.15 K [mPa·s]
x2 = 0	817.3	809.6	805.8	802.1	794.3	3.822	2.859	2.558	2.236	1.736
x2 = 0.1002	815.9	808.3	804.5	800.6	792.8	3.528	2.645	2.371	2.091	1.631
x2 = 0.2008	814.5	806.8	803	799.1	791.2	3.198	2.44	2.192	1.938	1.526
x2 = 0.3018	813.3	805.6	801.7	797.8	789.8	2.887	2.235	2.017	1.788	1.42
x2 = 0.4006	811.7	803.8	799.9	795.9	787.9	2.63	2.048	1.853	1.636	1.321
x2 = 0.5002	809.6	801.6	797.7	793.7	785.6	2.404	1.879	1.703	1.506	1.225
x2 = 0.6008	807.7	799.8	795.8	791.8	783.6	2.196	1.715	1.554	1.379	1.135
x2 = 0.7002	805.6	797.5	793.4	789.3	781	1.993	1.567	1.42	1.274	1.058
x2 = 0.7991	803.3	795.1	790.9	786.8	778.3	1.811	1.421	1.299	1.175	0.985
x2 = 0.8997	800.8	792.4	788.2	784.1	776	1.644	1.299	1.188	1.074	0.91

CCCCCCCCCCO [decan-1-ol] + CCO
Conditions	mass density, 283.15 K [kg/m3]	mass density, 293.15 K [kg/m3]	mass density, 298.15 K [kg/m3]	mass density, 303.15 K [kg/m3]	mass density, 313.15 K [kg/m3]	viscosity, 283.15 K [mPa·s]	viscosity, 293.15 K [mPa·s]	viscosity, 298.15 K [mPa·s]	viscosity, 303.15 K [mPa·s]	viscosity, 313.15 K [mPa·s]
x2 = 0	836.6	829.9	826.5	823	816.2	22.06	14.5	11.47	9.61	6.9
x2 = 0.09979	835.2	828.4	825	821.5	814.6	18.94	12.7	10.22	8.604	6.221
x2 = 0.2	833.7	826.9	823.5	820	813	16.12	10.94	8.957	7.538	5.513
x2 = 0.3002	831.9	825.1	821.6	818.1	811.1	13.35	9.255	7.687	6.462	4.812
x2 = 0.3999	829.5	822.6	819.1	815.5	808.8	10.96	7.668	6.509	5.468	4.146
x2 = 0.5	827.7	820.6	817	813.5	806.4	8.705	6.278	5.387	4.547	3.51
x2 = 0.6003	824	816.8	813.2	809.5	802.1	6.674	5.013	4.346	3.726	2.92
x2 = 0.6999	820.1	812.8	808.8	805.4	797.9	4.92	3.832	3.374	2.947	2.352
x2 = 0.7997	814.6	807	803.1	799.3	791.5	3.54	2.73	2.459	2.195	1.813
x2 = 0.9	807.9	800	795.9	791.9	783.8	2.319	1.87	1.692	1.534	1.311

CCCCCCCO [heptan-1-ol] + CCO
Conditions	mass density, 283.15 K [kg/m3]	mass density, 293.15 K [kg/m3]	mass density, 298.15 K [kg/m3]	mass density, 303.15 K [kg/m3]	mass density, 313.15 K [kg/m3]	viscosity, 283.15 K [mPa·s]	viscosity, 293.15 K [mPa·s]	viscosity, 298.15 K [mPa·s]	viscosity, 303.15 K [mPa·s]	viscosity, 313.15 K [mPa·s]
x2 = 0	829.6	822.6	819.1	815.6	808.4	10.15	7.026	5.947	5.041	3.802
x2 = 0.1001	828.1	821.1	817.6	814	806.8	8.86	6.256	5.311	4.514	3.446
x2 = 0.2008	826.5	819.5	815.9	812.3	805.1	7.718	5.46	4.679	3.999	3.092
x2 = 0.3009	824.8	817.7	814.1	810.4	803.1	6.653	4.681	4.097	3.523	2.751
x2 = 0.4002	822.8	815.5	811.9	808.2	800.8	5.636	4.015	3.565	3.076	2.438
x2 = 0.5001	819.9	812.5	808.8	805.1	797.5	4.683	3.42	3.037	2.653	2.125
x2 = 0.6002	817.6	810.2	806.4	802.6	794.9	3.765	2.869	2.541	2.237	1.818
x2 = 0.6998	813.8	806.2	802.3	798.4	790.6	3.02	2.378	2.09	1.859	1.536
x2 = 0.8	809.9	802.1	798.1	794.1	786.1	2.4	1.943	1.702	1.523	1.28
x2 = 0.8998	804.3	796.2	792.1	788	779.7	1.851	1.535	1.375	1.222	1.04
